Measured values reported in PMC10713630, “Elucidation of the structural basis for ligand binding and translocation in conserved insect odorant receptor co-receptors” (Nature Communications, 2023).
Values joined by “and” are separate entries in the source; they are usually repeats but may differ in a detail not shown here. Equal values may be shown once.

Experiments:
DmelOrco M210W = DmelOrco M210W (Drosophila melanogaster, UniProt Q9VNB5, M210W); test: TEVC recording of VUAA1-induced current, DmelOrco M210W in Xenopus oocytes; format: cell-based
Description: (§1) All Orco gene sequences were optimized[63] for protein expression in Xenopus laevis oocytes with the GenSmartTM Codon optimization Tool and subcloned into a pGEMHE-derived vector. The wildtype gene of Drosophila melanogaster Orco (DmelOrco) was synthesized by Genscript and subcloned with XmaI/XhoI cloning sites. Site-directed mutagenesis of DmelOrco was done by PCR with the Q5® site directed mutagenesis kit (NEB) using primers optimized with the NEBase Changer online tool and following the supplier’s protocol. After transformation of commercial competent bacteria (XL10 Gold) by standard heat-shock protocol and overnight culture in ampicillin-containing LB plates, positive clones were identified by electrophoretic restriction profile and external sequencing (Genewiz). DNAs of positive clones were amplified with Qiagen MidiPrep Kit and the ORF was fully sequenced. For in vitro transcription, DNAs were linearized with restriction enzyme NotI that cuts a unique site in the 3′ region of the polyA tail. The linearized DNAs were purified by the standard phenol:chloroform extraction method and transcribed into mRNA using the T7 ultra mMessage mMachine kit (Thermo Fisher Scientific). mRNAs were purified with the NucleoSpin RNA plus XS kit (Machery-Nagel). DNA and RNA were analyzed by agarose-gel electrophoresis and quantified by spectrophotometry.
(§2) Xenopus laevis oocytes were prepared, as previously described. Briefly, oocytes were defolliculated after surgical retrieval by type 1 A collagenase over 2-3 h under smooth horizontal agitation. They were manually selected and incubated at 19 °C in modified-Barth’s solution (1 mM KCl, 0.82 mM MgSO4, 88 mM NaCl, 2.4 mM NaHCO3, 0.41 mM CaCl2, Ca(NO3)2 0.3 mM, 16 mM HEPES, pH 7.4) supplemented with 100 U mL^−1 of penicillin and streptomycin and 0.1 mg mL^−1 of gentamycin. Each oocyte was micro-injected with the Nanoject instrument (Drummond) with 50 nL of 20 ng of mRNA coding for the Orco of interest. Injected oocytes were incubated individually in 96-well plates for 4 days at 19 °C in the same buffer. Different batches of oocytes have been tested per construct. The results of the mutants of interest have been confirmed by a second set of experiments comparing the amplitudes with WT in the same day and from the same batch of oocytes (Supplementary Fig. 11).
(§3) Whole cell currents were recorded with the two-electrode voltage-clamp (TEVC) technique with the HiClamp robot (MultiChannel System). Microelectrodes were filled with 3 M KCl. The high K^+ buffer used for recordings was composed of 91 mM KCl, 1 mM MgCl2, 1.8 mM CaCl2, 5 mM HEPES, pH 7.4. Membrane voltage was clamped to −50 mV and VUAA1 was applied for 60 s. Data were extracted with M. Vivaudou’s programs[65] and statistically analyzed with Prism 8 (Graphpad).

DmelOrco WT = target: T1, DmelOrco WT (Drosophila melanogaster, UniProt Q9VNB5); test: TEVC recording of VUAA1-induced current, DmelOrco WT in Xenopus oocytes; format: cell-based; set-up: VUAA1-induced current, WT: unit not given here; settings: for VUAA1-induced current, WT: individual oocytes
T1 sequence (Q9VNB5 1-486): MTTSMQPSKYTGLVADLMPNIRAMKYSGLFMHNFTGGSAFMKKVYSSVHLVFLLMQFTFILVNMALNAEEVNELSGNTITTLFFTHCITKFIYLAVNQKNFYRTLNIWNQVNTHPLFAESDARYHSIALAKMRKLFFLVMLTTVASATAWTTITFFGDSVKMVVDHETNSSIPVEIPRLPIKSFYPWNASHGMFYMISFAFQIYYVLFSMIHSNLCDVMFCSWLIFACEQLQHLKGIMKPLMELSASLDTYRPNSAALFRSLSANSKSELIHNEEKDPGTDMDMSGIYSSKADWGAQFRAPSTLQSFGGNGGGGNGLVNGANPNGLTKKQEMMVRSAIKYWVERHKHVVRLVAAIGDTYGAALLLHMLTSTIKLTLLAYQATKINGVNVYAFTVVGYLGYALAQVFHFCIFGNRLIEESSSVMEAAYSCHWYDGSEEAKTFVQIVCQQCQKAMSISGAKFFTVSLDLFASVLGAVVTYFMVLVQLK
Description: as §1, §2, §3

MhraOR5 = test system: MhraOR5; set-up: method as in PMID 34349260; settings: cited from earlier work
DmelOrco I79A = DmelOrco I79A (Drosophila melanogaster, UniProt Q9VNB5, I79A); test: TEVC recording of VUAA1-induced current, DmelOrco I79A in Xenopus oocytes; format: cell-based; set-up: VUAA1-induced current, i79A: unit not given here
Description: as §1, with “The linearized DNAs were purified by the standard phenol:chloroform extraction method and transcribed into mRNA using the T7 ultra mMessage mMachine kit (Thermo Fisher Scientific). mRNAs were purified with the NucleoSpin RNA plus XS kit (Machery-Nagel).” left out, “spectrophotometry. […]” for “spectrophotometry.”
(§4) Whole cell currents were recorded with the two-electrode voltage-clamp (TEVC) technique with the HiClamp robot (MultiChannel System). […] Data were extracted with M. Vivaudou’s programs[65] and statistically analyzed with Prism 8 (Graphpad).

AalbOrco = test: TEVC recording of VUAA1-induced current, AalbOrco in Xenopus oocytes; format: cell-based, Aedes albopictus; settings: 500 µM VUAA1, TEVC, each value one oocyte, Fig.S1c source data
Description: as §1, with “For in vitro transcription, DNAs were linearized with restriction enzyme NotI that cuts a unique site in the 3′ region of the polyA tail. The linearized DNAs were purified by the standard phenol:chloroform extraction method and transcribed into mRNA using the T7 ultra mMessage mMachine kit (Thermo Fisher Scientific). mRNAs were purified with the NucleoSpin RNA plus XS kit (Machery-Nagel).” left out, “spectrophotometry. […]” for “spectrophotometry.”
Whole cell currents were recorded with the two-electrode voltage-clamp (TEVC) technique with the HiClamp robot (MultiChannel System). […] Data were extracted with M. Vivaudou’s programs[65] and statistically analyzed with Prism 8 (Graphpad). […]
37 from different species expressed in Xenopus oocytes and recorded by TEVC. […]

non-injected oocytes = test: TEVC recording, negative control (NC) oocytes, non-injected or water-injected; format: cell-based, Xenopus laevis; settings: Fig.4b; individual oocytes; in µA
Description: as §2
as §3, with “Membrane voltage was clamped to −50 mV and VUAA1 was applied for 60 s.” left out

DmelOrco Y400A = DmelOrco Y400A (Drosophila melanogaster, UniProt Q9VNB5, Y400A); test: TEVC recording of VUAA1-induced current, DmelOrco Y400A in Xenopus oocytes; format: cell-based; settings: 500 µM VUAA1, TEVC
Description: as §1, with “The linearized DNAs were purified by the standard phenol:chloroform extraction method and transcribed into mRNA using the T7 ultra mMessage mMachine kit (Thermo Fisher Scientific). mRNAs were purified with the NucleoSpin RNA plus XS kit (Machery-Nagel).” left out, “spectrophotometry. […]” for “spectrophotometry.”
as §4

MdesOrco H81F = settings: H81 replaced by phenylalanine; cited from earlier work

Chain of DmelOrco M210W (Q9VNB5 whole entry M210W, the tested form may be a part): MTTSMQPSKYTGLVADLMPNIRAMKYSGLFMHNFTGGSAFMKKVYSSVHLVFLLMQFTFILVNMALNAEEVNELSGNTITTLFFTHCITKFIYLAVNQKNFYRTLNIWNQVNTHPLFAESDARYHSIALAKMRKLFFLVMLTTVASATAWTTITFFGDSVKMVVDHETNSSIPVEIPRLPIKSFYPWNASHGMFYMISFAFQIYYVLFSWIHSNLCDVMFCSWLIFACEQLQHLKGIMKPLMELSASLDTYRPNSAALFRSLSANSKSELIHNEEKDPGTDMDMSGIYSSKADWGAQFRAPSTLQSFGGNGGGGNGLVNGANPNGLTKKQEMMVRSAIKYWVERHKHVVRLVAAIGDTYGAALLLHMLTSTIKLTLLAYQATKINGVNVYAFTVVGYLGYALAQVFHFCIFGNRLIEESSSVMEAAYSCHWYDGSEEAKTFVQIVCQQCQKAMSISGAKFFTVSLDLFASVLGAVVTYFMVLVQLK
Chain of DmelOrco I79A (Q9VNB5 whole entry I79A, the tested form may be a part): as the sequence (Q9VNB5 whole entry M210W, the tested form may be a part) above, with I79A, W210M counted along it
Chain of DmelOrco Y400A (Q9VNB5 whole entry Y400A, the tested form may be a part): as the sequence (Q9VNB5 whole entry M210W, the tested form may be a part) above, with W210M, Y400A counted along it

Question: Which results are given for `CCc1ccc(NC(=O)CSc2nnc(-c3cccnc3)n2CC)cc1` [VUAA1, N-(4-ethylphenyl)−2-((4-ethyl-5-(3-pyridinyl)−4H-1,2,4-triazol-3-yl)thio)acetamide]?
Answer: EC50 (DmelOrco M210W): 120 µM; Current induced by VUAA1 (median) (DmelOrco M210W; 500 µM VUAA1, TEVC, M210W): 2.12 µA; Response to VUAA1 compared with WT (DmelOrco M210W; 500 µM VUAA1, TEVC, M210W): significant decrease in the response; Imax (DmelOrco M210W; concentration-effect curve of VUAA1, TEVC, M210W): 1.50 µA; Current induced by VUAA1 (median) (DmelOrco WT; 500 µM VUAA1, TEVC, WT): 4.71 µA; Current amplitude in the presence of VUAA1 compared with Orcos of other species (DmelOrco WT; 500 µM VUAA1, TEVC, versus AbakOrco, AalbOrco, CquiOrco): highest current amplitude; VUAA1-induced current, WT (DmelOrco WT; Fig.4b): 1.7 and 1.54 and 2.24 and 5.84 and 5.68 and 11.97 and 10.02 and 8.3 and 7.33 and 2.12 and 1.87 and 2.7 and 3.73 and 16.35 and 2.15 and 5.7; VUAA1-induced current, WT (DmelOrco WT; Fig.4i dose-response, VUAA1 10 µM (Log(M) -5)): 0.03 and 0.04 (2×) and 0.02 and 0.09 and 0.05 and 0.06; VUAA1-induced current, WT (DmelOrco WT; Fig.4i dose-response, VUAA1 25 µM (Log(M) -4.6)): 0.27 and 0.36 and 0.04 (4×) and 0.08 (2×) and 0.03 (3×) and 0.02 and 0.05 (3×) and 0.15 and 0 and 0.09 and 0.12 and 0.07; VUAA1-induced current, WT (DmelOrco WT; Fig.4i dose-response, VUAA1 50 µM (Log(M) -4.3)): 0.58 and 0.72 and 0.4 (2×) and 0.37 and 0.54 and 0.11 and 0.17 and 0.26 (3×) and 0.21 and 0.34 and 0.77 and 1.04 and 1.01 (2×) and 0.78 and 1.15 and 1.23; VUAA1-induced current, WT (DmelOrco WT; Fig.4i dose-response, VUAA1 100 µM (Log(M) -4)): 1.33 and 1.71 and 2.65 and 2.17 (2×) and 2.77 and 1.82 and 2.07 and 2.22 and 1.61 and 2.38 and 1.2 and 1.79 and 2.19 and 2.6 and 2.64 (2×) and 1.94 and 2.47 and 2.54; VUAA1-induced current, WT (DmelOrco WT; Fig.4i dose-response, VUAA1 500 µM (Log(M) -3.3)): 3.64 (2×) and 4.55 and 3.85 and 4.63 and 4.01 and 4.3 and 4.47 and 4.77 and 5.33 and 1.53 and 3.97 and 4.65 and 2.65 and 2.64 and 2.78 (2×); EC50 (DmelOrco WT; VUAA1 dose-response curve, TEVC, WT): 94.5 µM; Imax (DmelOrco WT; concentration-effect curve of VUAA1, TEVC, WT): 3.97 µA; Activation of MhraOR5 (MhraOR5): not by VUAA1; Response to VUAA1 compared with WT (DmelOrco I79A; 500 µM VUAA1, TEVC, I79A): did not significantly affect the amplitude of activation; VUAA1-induced current, i79A (DmelOrco I79A; Fig.4b, individual oocytes): 1.26 and 4.71 and 3.65 and 1.07 and 3.06 and 3.49 and 3.19 and 0.68 and 2.72 and 3.85; Current amplitude induced by 500 µM VUAA1 (single recordings) (AalbOrco): 2.82 µA and 1.66 µA; VUAA1-induced current, NC (non-injected oocytes): 0.05 and 0.03 and 0.3 and 0.19 and 0.39 and 0.02; Response to VUAA1 compared with WT (DmelOrco Y400A): did not significantly change the response; Response of MdesOrco H81F to VUAA1 (MdesOrco H81F): induced a response to VUAA1
